The source of these data is ChEMBL document CHEMBL1137745, “Computational modeling and surface plasmon resonance analyses in the assessment of peptide ligands interacting with fibrin gamma(312-324) epitope” (Eur J Med Chem, 2009).

Peptide text beside a SMILES is read from it.

Assay [1] in a line: Binding affinity to gamma (312-324) epitope of human fibrinogen by Biacore X system.
Assay [2] in a line: Binding affinity to gamma (312-324) epitope of human fibrinogen measured at flow rate of 30 ul/min by Biacore X system.
Assay [3] in a line: Binding affinity to gamma (312-324) epitope of human fibrinogen measured at flow rate of 5 ul/min by Biacore X system.

For `N=C(N)NCCC[C@H](NC(=O)[C@H](CC(=O)O)NC(=O)[C@@H](N)CCCCN)C(N)=O` (H-Lys-Asp-Arg-NH2), the Kd was found to be 34.4 µM in assay [1], 16.2 µM in assay [2] and 52.6 µM in assay [3].

Consider `N=C(N)NCCC[C@H](NC(=O)[C@H](CCC(=O)O)NC(=O)[C@@H](N)CCCCN)C(N)=O` (H-Lys-Glu-Arg-NH2), for which the Kd in assay [1] was 17.5 µM; in assay [2], 21.9 µM; in assay [3], 13 µM.

For `NCCCC[C@H](NC(=O)[C@H](CCC(=O)O)NC(=O)[C@@H](N)CCCCN)C(N)=O` (H-Lys-Glu-Lys-NH2), the figures for the Kd in assay [1], in assay [2] and in assay [3] were 25 µM, 15 µM and 35 µM, respectively.

On to Ac-RDKDR-OH, for which the results for the Kd in assay [1], in assay [2] and in assay [3] were 23.6 µM, 16.8 µM and 30.4 µM, respectively.

As to H-RDKDR-NH2, the Kd in assay [1] is 0.25 µM; in assay [2], 0.2 µM; in assay [3], 0.3 µM.
